Tested on: Liver microsomes
Assay: Drug metabolism in human liver microsomes at 20 mM
Assay type: ADME, Microsome
Settings: 20000 µM; call rule not given here

- Drug metabolism: Active
SMILES: CN(Cc1ccccc1)C(=O)[C@@H](NC(=O)c1cc2cc(NC(=O)c3ccccc3-c3ccc(C(F)(F)F)cc3)ccc2n1C)c1ccccc1 [DIRLOTAPIDE]

Reference: ChEMBL document CHEMBL1932919, “Dirlotapide as a model substrate to refine structure-based drug design strategies on CYP3A4-catalyzed metabolism” (Bioorg Med Chem Lett, 2012)
